# From article PMC6379368, “Extracellular and intracellular small-molecule galectin-3 inhibitors” (Scientific Reports, 2019)
# Values joined by “and” are separate entries in the source; they are usually repeats but may differ in a detail not shown here. Equal values may be shown once. Read-outs that look alike come from different tables or passages of the source. Where a SMILES comes first, the peptide text is derived from it. The star is where a group is joined. βNA = c1ccc2cc(N*)ccc2c1
# Legend:
# [1] = target: T1, galectin-3 (Homo sapiens, UniProt P17931); assay: GPN-induced galectin-3 accumulation (puncta) in JIMT-1 breast cancer cells; assay type: cell-based; parameters: In the intracellular assay, in contrast, only endogenous galectin was present; endogenous in cells; host or cells: JIMT-1 breast cancer cells
# Experimental: The total number of galectin-3 puncta and nuclei in the microscopy images were quantified using the software ImageJ.
# Cells were seeded in multi-well plates with sterile glass coverslips placed in each well and allowed to adhere to the cell culture surface for at least 24 hours. Then the cells were pre-treated with the different galectin-3 inhibitors at different concentrations (or DMSO as control) for 15 minutes or 24 hours followed by addition of the lysosomal damaging peptide GPN[42] and incubated another 13 minutes, with the inhibitors still present. The 13-minute incubation with GPN and 15-minute pre-incubation with inhibitors were done in DMEM/Ham’s F12 medium with 15 mM HEPES buffer (without serum), whereas the 24-hour incubation with inhibitors were performed in fully supplemented DMEM/Ham’s F12 medium (as described under Cell culture).
# After treatment with GPN, the cells were fixed in 3.7% (v/v) formaldehyde in phosphate-buffered saline (PBS) for 15 minutes, permeabilized and blocked using 1% (v/v) TWEEN 20 and 5% (w/v) BSA in PBS for 30 minutes, then incubated with primary and secondary antibodies for one hour each (washed with PBS in between). Primary and secondary antibodies for galectin-3 staining were a rat anti-mouse galectin-3 IgG antibody[50],[51] […] All antibodies were diluted in 0.05% TWEEN 20 and 5% BSA in PBS. […] The coverslips were mounted on glass slides using Mowiol® 4–88 and left at 8 °C overnight before further examination. For imaging of the cells, a LSM-510 confocal laser scanning microscope (Carl Zeiss Microscopy GmbH, Oberkochen, Germany), equipped with a Hamamatsu R6357 photomultiplier (Hamamatsu Photonics K.K., Hamamatsu, Japan), was used. […] Maximum intensity projections of each picture obtained were analyzed with ImageJ 1.47 v (Rasband, W.S., ImageJ, U. S. National Institutes of Health, Bethesda, Maryland, USA) to quantify the number of galectin-3 dots and the number of nuclei in each picture. The quantification of particles (i.e. galectin-3 puncta/nucleus) was carried out using batch processing in the software, where a single macro (including parameters such as image thresholds, particle size and circularity) was used for all images obtained from a single experiment, this to reduce user bias and time consumption.
# [2] = Caco-2 permeability assay; details: human, Caco-2, pH 7.4
# [3] = tested on: MCF-7 cells; assay: MTT cell viability assay, MCF-7; assay type: cell-based; details: MCF-7, 72 hours, 0.04–40 µM for 1 and 2, 0.04–20 µM for 3
# Experimental: (§1) The MTT (3-[4,5-dimethylthiazol-2-yl]−2,5-diphenyltetrazolium bromide) assays were performed as previously described. […] The cells were incubated for 24 hours before addition of galectin-3 inhibitors. The inhibitors were diluted in PBS from their respective stock solution in DMSO (see Galectin-3 inhibitors) and used at final concentrations ranging from 0.04 to 40 μM. DMSO was adjusted to make the final DMSO concentration 0.2% for all inhibitor concentrations, including the control sample (no inhibitor). After 72 hours of treatment, 20 μl of 5 mg/ml MTT solution (in PBS) was added to each well and incubation continued for 1 hour at 37 °C. Thereafter, the MTT containing medium was removed and 100 μl of DMSO was added per well and the plates swirled gently for 10 minutes to dissolve the cells and the purple formazan product precipitate. Absorbance was monitored at 540 nm using a Labsystems iEMS Reader MF (Labsystems Oy, Helsinki, Finland) and the software DeltaSoft II v.4.14 (Biometallics Inc., Princeton, NJ, USA).
# [4] = tested on: obese mice; parameters: method as in PMID 27814523; details: type 2 diabetes study; cited from earlier work
# [5] = target: T1, galectin-3; assay: Inhibition of fluorescein-tagged galectin-3 binding to the cell surface of CHO cells (flow cytometry); assay type: cell-based; parameters: made in house; host or cells: E. coli BL21 Star (DE3); details: 0.5 µM fluorescein-tagged galectin-3, 4 °C, 1 hour
# [6] = tested on: JIMT-1 cells; assay: MTT cell viability assay, JIMT-1; assay type: cell-based; details: JIMT-1, 72 hours, 0.04–40 µM for 1 and 2, 0.04–20 µM for 3
# Experimental: as §1
# [7] = target: T1, galectin-3; assay: Fluorescence anisotropy (FA) competitive assay, affinity for galectin-3; assay type: binding; parameters: made in house; host or cells: E. coli BL21 Star (DE3)
# Text: A FA assay was used to determine the affinity of recombinant human galectin-3 and the three inhibitors in solution. The use of the FA assay for this purpose has previously been described in detail by Sörme et al.[49]. In short, increasing concentrations of galectins were first titered against a fixed concentration of the fluorescent saccharide probe 3,3′-dideoxy-3-[4-(fluorescein-5-yl-carbonylaminomethyl)-1H-1,2,3-triazol-1-yl]−3′-[4-(3-fluorophenyl)-1H-1,2,3-triazol-1-yl]-1,1′-sulfanediyl-di-β-D-galactopyranoside (4 nM) (described in Peterson et al.[28]), to obtain binding curves in which the anisotropy value increases from a value for probe free in solution (A0) to a value where all probe molecules are bound to galectin-3 (Amax). Binding curves were constructed for each test condition used in this study (i.e. different buffer, temperature and pH, see below) (Fig. S4). To establish the dissociation constant (Kd) values between the inhibitors and galectin-3, a competitive variant of the FA assay was utilized. In this study, increasing concentrations of the inhibitors were titered against fixed concentrations of galectin-3 and probe. By measuring the anisotropy values for the different inhibitor concentrations, together with the values for Amax and A0, the Kd values could be calculated according to the equations presented in Sörme et al.[49].
# The experiments were either performed in PBS (pH 7.2), in 50 mM phosphate buffer with 100 mM NaCl (pH 6, 7, or 8), or in 50 mM acetate buffer with 100 mM NaCl (pH 5). All buffers were supplemented with 0.1 µM BSA (to not lose any protein due to absorbance to plate surfaces). For the experiments performed in PBS (pH 7.2), a concentration of 20 nM galectin-3 was used (at room temperature and 4 °C). For the experiments done in phosphate/acetate buffer, galectin-3 was used at concentrations of 400 nM (pH 5), 100 nM (pH 6), or 50 nM (pH 7 and 8).
# The emitted light from the fluorescent saccharide probes was measured using a PheraStarFS plate reader and PHERAstar Mars version 2.10 R3 software (BMG, Offenburg, Germany). […] The anisotropy values for each data point were read in duplicate wells of 96-well plates (at a total volume of 140 µl) 30 minutes after the addition of all solutions (for equilibrium to arise).
# [8] = tested on: HCC1937 cells; assay: MTT cell viability assay, HCC1937; assay type: cell-based; details: HCC1937, 72 hours, 0.04–40 µM for 1 and 2, 0.04–20 µM for 3
# Experimental: as §1
# [9] = tested on: galectin-1; parameters: method as in Delaine et al., Salameh et al., Peterson et al.; details: lower compared to galectin-3; ref Delaine et al., Salameh et al., Peterson et al.; cited from earlier work
# T1 sequence (P17931 whole entry): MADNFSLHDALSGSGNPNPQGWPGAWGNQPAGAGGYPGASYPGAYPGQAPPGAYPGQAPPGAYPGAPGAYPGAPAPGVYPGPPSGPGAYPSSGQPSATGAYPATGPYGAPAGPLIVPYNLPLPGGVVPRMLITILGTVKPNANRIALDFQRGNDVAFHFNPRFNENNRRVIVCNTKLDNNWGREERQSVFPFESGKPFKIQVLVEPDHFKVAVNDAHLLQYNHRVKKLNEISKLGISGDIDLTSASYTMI
"mean number of galectin-3 puncta/nucleus ([1]; JIMT-1 cells, 0.3 mM GPN for 13 minutes, n = 92)",Papp A→B [2],Papp B→A [2],IC50 [5],"Kd ([7]; as in Fig. 1b, restated in legend of Fig. S1, read-out: Kd value for galectin-3)","Kd ([7]; galectin-3 CRD, FA assay, PBS pH 7.2, room temperature, read-out: Kd value for galectin-3)","Kd ([7]; pH 5, acetate buffer with NaCl, read-out: Kd value for galectin-3 at pH 5)",fold lower affinity for galectin-3 compared to 1 ([7]; ratio of Kd values),"IC50 ([1]; JIMT-1 cells, 15 minutes pre-incubation, read-out: IC50, inhibition of GPN-induced galectin-3 accumulation)",SMILES,cell viability (MTT) [3],glucose tolerance [4],insulin resistance [4],cell viability (MTT) [6],cell viability (MTT) [8],affinity for galectin-1 [9],"inhibition of galectin-3 accumulation (extent) ([1]; 15 minutes pre-treatment, high concentrations 50–100 µM)","inhibition of galectin-3 accumulation (extent) ([1]; 24 hours pre-treatment, up to 10 µM)"
4.81 ± 0.23,,,,,,,,,"NCC(=O)N[C@@H](Cc1ccccc1)C(=O)Nc1ccc2ccccc2c1 [GPN, glycyl-L-phenylalanine 2-naphthylamide, reference compound] (H-Gly-Phe-βNA)",,,,,,,,
,14.7 ×10⁻⁶ cm/s,16.2 ×10⁻⁶ cm/s,,,,,,,OC[C@H]1O[C@H](Sc2ccc(Cl)c(Cl)c2)[C@H](O)[C@@H](n2cc(-c3cc(F)c(F)c(F)c3)nn2)[C@H]1O [compound 2],,,,,,,,
,< 0.3 ×10⁻⁶ cm/s,< 0.07 ×10⁻⁶ cm/s,10000 nM,35.8 nM,36 nM and 35.8 nM,778 nM,> 10 fold,~10000 nM,CCCCNC(=O)c1cn(C2C(O)C(CO)OC(SC3OC(CO)C(O)C(n4cc(C(=O)NCCCC)nn4)C3O)C2O)nn1 (stereo not shown) [compound 3],no apparent change in cell viability,improved glucose tolerance,decreased insulin resistance,no apparent change in cell viability,no apparent change in cell viability,high affinity,complete inhibition of galectin-3 accumulation could not be reached,poor inhibitor of galectin-3 accumulation
